Our source for the IC50 values is patent publication US6642256B2, “Piperidine derivatives as subtype selective N-Methyl-D-Aspartate antagonists” (Warner-Lambert Company LLC, priority 2000, dated 2003).

This assay deals with NR1A/NR2B NMDA receptor (Rattus norvegicus, UniProt P35439+Q00960). The assay is described as follows: Electrophysiological NR1A/NR2B assay in Xenopus oocytes (two-electrode voltage clamp). It counts as cell-based. Particulars: Table 1; oocytes expressing NR1A/NR2B, currents activated by glutamate and glycine. The source says: I. Electrophysiological assays at NMDA receptor subunits (in vitro):
(i) Preparation of subunit RNA's:
cDNA clones encoding the NR1A, NR2A, NR2B, and NR2C rat NMDA receptor subtypes were used. (See, Moriyoshi et al., Nature (Lond.), 1991;354:31-37; Kutsuwada et al., Nature (Lond.), 1992;358:36-41; Monyer et al., Science (Washington, D.C.) 1992;256:1217-1221; Ikeda et al., FEBS Lett. 1992;313: 34-38; Ishii et al., J. Biol. Chem., 1993;268:2836-2843 for details of these clones or their mouse homologs). The clones were transformed into appropriate host bacteria and plasmid preparations were made with conventional DNA purification techniques. A sample of each clone was linearized by restriction enzyme digestion […] was synthesized with T3 RNA polymerase. The cRNA was diluted to 400 ng/μl and stored in 1 μl aliquots at −80° C. until injection.
(ii) The Xenopus oocyte expression system: […]
Electrical recordings were made using a conventional two-electrode voltage clamp (Dagan TEV-200) over periods ranging between 3 to 21 days following injection. […] Inhibitory potency of the novel antagonists of this invention was assessed on responses elicited by fixed concentrations of glutamate and glycine agonists, by measuring reductions in current induced by progressively increasing concentrations of invention compounds. […]
In general terms: Two-electrode voltage clamp is typically applied to oocytes expressing channels or transporters.

NR1A/NR2B NMDA receptor, sequence (Q00960 27-1482, other chains not shown): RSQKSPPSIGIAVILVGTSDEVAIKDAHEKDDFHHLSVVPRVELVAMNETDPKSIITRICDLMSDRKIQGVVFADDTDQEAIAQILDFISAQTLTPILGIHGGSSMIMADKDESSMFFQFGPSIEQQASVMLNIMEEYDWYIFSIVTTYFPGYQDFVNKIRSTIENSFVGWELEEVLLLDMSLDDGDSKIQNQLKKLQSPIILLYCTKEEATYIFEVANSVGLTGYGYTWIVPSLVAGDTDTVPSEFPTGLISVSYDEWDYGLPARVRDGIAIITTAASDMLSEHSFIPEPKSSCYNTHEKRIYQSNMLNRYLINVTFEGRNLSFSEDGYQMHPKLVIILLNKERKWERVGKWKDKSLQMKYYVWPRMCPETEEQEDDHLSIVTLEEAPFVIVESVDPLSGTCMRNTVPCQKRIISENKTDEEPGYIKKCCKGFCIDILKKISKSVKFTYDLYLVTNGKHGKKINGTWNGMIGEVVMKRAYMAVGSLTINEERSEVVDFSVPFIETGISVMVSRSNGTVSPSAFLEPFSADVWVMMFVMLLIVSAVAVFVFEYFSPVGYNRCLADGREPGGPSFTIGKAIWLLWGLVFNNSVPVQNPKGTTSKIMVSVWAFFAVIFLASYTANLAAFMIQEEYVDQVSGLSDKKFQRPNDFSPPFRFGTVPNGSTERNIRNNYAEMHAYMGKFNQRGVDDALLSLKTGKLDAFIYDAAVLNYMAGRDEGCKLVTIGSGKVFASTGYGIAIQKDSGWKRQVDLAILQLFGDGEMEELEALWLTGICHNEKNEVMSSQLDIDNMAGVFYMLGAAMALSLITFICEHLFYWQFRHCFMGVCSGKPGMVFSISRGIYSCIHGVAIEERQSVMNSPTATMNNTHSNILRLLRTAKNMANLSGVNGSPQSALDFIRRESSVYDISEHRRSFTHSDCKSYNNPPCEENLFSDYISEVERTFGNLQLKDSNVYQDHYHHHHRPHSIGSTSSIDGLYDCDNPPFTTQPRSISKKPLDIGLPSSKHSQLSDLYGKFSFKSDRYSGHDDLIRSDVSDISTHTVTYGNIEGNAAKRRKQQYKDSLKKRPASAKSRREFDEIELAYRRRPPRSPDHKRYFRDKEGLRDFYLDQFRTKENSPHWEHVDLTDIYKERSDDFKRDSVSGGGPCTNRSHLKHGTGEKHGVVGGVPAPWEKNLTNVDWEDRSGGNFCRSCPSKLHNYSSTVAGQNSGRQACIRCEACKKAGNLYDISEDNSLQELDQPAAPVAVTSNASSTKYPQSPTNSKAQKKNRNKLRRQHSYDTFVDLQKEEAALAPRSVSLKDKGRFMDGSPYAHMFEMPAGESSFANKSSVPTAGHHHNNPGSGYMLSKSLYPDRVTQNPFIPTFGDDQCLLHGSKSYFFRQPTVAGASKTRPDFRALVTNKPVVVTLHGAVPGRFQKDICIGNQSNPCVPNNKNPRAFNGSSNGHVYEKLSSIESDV

On to `O=c1[nH]c2ccc(C3=NOC(CN4CCC(Cc5ccccc5)CC4)C3)cc2o1` (racemic) [Example 1, 6-[5-(4-Benzylpiperidin-1-ylmethyl)-4,5-dihydroisoxazol-3-yl]-3H-benzoxazol-2-one], for which the IC50 (as a rule, the concentration needed to halve the response being measured) was 0.08 µM.
